According to ChEMBL document CHEMBL1201862, “PubChem BioAssay data set” (2004):
The source made the active and inactive calls.

How the values were obtained:
[1] = biological target: T1, G-protein coupled receptor 35 (Homo sapiens, UniProt Q9HC97); assay: SAR analysis of Antagonists of the GPR35 Receptor using an Image-Based Assay - Set 3. [Related pubchem assays (depositor defined):AID2013, AID2026]; format: functional
[2] = biological target: T2, Cannabinoid receptor 1 (Homo sapiens, UniProt P21554); assay: SAR analysis of agonists of the Cannabinoid Receptor 1 using an Image-Based Assay - Set 2. [Related pubchem assays (depositor defined):AID2013, AID2026]; format: functional
T2 sequence (P21554 whole entry): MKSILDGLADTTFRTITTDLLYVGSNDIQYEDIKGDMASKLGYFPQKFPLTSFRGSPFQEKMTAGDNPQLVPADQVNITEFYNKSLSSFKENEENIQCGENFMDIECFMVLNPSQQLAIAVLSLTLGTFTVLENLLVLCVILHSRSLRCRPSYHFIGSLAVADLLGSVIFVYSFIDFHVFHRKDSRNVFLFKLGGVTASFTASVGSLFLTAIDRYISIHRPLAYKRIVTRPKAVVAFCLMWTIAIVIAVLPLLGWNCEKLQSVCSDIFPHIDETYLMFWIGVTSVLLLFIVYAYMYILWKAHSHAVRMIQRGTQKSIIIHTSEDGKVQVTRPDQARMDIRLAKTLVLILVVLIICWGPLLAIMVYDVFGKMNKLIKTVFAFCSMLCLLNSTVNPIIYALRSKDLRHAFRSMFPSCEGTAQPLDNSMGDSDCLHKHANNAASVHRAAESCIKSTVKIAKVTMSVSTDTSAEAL

[3] = biological target: T3, Cannabinoid receptor 2 (Homo sapiens, UniProt P34972); assay: SAR analysis of agonists of the Cannabinoid Receptor 2 using an Image-Based Assay. [Related pubchem assays (depositor defined):AID2013, AID2026]; format: functional
T3 sequence (P34972 whole entry): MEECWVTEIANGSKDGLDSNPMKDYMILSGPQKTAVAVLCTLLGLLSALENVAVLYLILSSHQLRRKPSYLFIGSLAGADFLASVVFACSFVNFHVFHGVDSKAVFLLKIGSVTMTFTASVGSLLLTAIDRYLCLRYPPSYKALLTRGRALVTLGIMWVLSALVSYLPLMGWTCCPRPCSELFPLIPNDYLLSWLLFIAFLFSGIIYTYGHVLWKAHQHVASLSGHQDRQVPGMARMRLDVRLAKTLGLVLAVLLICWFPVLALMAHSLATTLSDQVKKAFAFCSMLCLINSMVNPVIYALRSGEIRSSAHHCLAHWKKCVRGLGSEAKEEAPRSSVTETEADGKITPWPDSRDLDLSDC

[4] = biological target: T4, Calpain-2 catalytic subunit (Sus scrofa, UniProt P43367); assay: pig calpain II inhibitor potency, dose response, biochemical, fluorogenic peptide substrate (AID 1420); format: functional
T4 sequence (P43367 whole entry): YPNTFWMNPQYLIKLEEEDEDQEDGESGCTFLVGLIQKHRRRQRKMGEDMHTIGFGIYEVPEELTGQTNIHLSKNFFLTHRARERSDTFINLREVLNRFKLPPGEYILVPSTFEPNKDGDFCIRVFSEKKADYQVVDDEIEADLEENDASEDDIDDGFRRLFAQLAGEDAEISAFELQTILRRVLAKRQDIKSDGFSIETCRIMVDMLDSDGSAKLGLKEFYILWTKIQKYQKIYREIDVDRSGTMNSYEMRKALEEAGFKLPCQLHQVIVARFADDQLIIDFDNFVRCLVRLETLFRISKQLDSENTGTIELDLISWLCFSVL

[5] = biological target: T5, G-protein coupled receptor 55 (Homo sapiens, UniProt Q9Y2T6); assay: GPR55 antagonists blocking LPI-driven arrestin recruitment, primary screen, imaging, U2OS, beta-arrestin-GFP, LPI agonist (AID 2013); format: functional;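 further: antagonist potency measured as reduced agonist-driven arrestin aggregation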
T5 sequence (Q9Y2T6 whole entry): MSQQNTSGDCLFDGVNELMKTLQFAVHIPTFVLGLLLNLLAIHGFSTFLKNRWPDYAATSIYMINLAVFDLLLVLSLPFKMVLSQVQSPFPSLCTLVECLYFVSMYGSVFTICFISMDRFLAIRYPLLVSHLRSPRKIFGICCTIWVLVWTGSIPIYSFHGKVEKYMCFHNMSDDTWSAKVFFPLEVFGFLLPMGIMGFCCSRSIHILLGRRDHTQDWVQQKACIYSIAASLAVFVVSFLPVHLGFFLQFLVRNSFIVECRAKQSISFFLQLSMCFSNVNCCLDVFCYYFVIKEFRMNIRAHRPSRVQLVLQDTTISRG

[6] = biological target: T6, Probable nicotinate-nucleotide adenylyltransferase (Staphylococcus aureus (strain N315), UniProt P65502); format: functional, Staphylococcus aureus subsp. aureus N315;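 on IC50 Mean: confirmatory dose-response retesting of NadD inhibitor hits first found in an ultra-high-throughput screen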
T6 sequence (P65502 whole entry): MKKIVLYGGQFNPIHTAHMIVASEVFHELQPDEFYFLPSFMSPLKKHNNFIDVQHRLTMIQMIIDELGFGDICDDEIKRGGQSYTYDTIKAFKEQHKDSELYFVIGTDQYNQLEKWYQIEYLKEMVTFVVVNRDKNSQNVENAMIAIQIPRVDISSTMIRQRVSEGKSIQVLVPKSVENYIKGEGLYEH

[7] = biological target: T2, Cannabinoid receptor 1; assay: SAR analysis of antagonists of the Cannabinoid Receptor 1 using an Image-Based Assay - Set 2. [Related pubchem assays (depositor defined):AID2013, AID2026]; format: functional
[8] = biological target: T3, Cannabinoid receptor 2; assay: SAR analysis of antagonists of the Cannabinoid Receptor 2 using an Image-Based Assay. [Related pubchem assays (depositor defined):AID2013, AID2026]; format: functional
[9] = biological target: T6, Probable nicotinate-nucleotide adenylyltransferase; format: functional, Staphylococcus aureus subsp. aureus N315; details: read-out: IC50_Mean
[10] = biological target: T5, G-protein coupled receptor 55; assay: GPR55 antagonist potency of analogs, SAR follow-up, imaging, U2OS, beta-arrestin-GFP, LPI agonist, set 2 (AID 2820); format: functional
[11] = biological target: T1, G-protein coupled receptor 35; assay: SAR analysis of Agonists of the GPR35 Receptor using an Image-Based Assay - Set 2. [Related pubchem assays (depositor defined):AID2013, AID2026]; format: functional
[12] = test system: CHO-K1; assay: (§1) Counterscreen for antagonists of the orexin 1 receptor (OX1R; HCRTR1): Homogeneous time resolved fluorescence (HTRF)-based cell-based dose response assay to identify antagonists of the parental CHO-K1 cell line. [Related pubchem assays (depositor defined):AID434989, AID435008, AID463079, AID485270, AID492963, AID492964, AID492965, AID493232, AID504699, AID504701]; format: functional; details: Cricetulus griseus
[13] = biological target: T7, Orexin/Hypocretin receptor type 1 (Homo sapiens, UniProt O43613); assay: Homogeneous Time Resolved Fluorescence (HTRF)-based cell-based high throughput dose response assay for antagonists of the orexin 1 receptor (OX1R; HCRTR1). [Related pubchem assays (depositor defined):AID434989, AID435008, AID463079, AID485270, AID492963, AID492964, AID492965, AID493232, AID504717, AID504718]; format: functional
T7 sequence (O43613 whole entry): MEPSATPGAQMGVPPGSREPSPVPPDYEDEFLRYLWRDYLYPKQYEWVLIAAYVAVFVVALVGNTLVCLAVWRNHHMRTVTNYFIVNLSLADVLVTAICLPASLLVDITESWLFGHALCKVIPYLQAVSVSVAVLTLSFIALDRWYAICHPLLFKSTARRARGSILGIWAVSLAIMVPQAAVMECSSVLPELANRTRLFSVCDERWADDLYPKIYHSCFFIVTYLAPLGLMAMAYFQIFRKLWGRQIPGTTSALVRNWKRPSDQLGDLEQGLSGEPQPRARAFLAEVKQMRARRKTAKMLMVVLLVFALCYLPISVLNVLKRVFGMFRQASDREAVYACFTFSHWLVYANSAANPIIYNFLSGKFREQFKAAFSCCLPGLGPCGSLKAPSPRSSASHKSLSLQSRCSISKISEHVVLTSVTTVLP

[14] = as §1, with “Fluorescence-based” for “Homogeneous time resolved fluorescence (HTRF)-based”, “cell-based high throughput” for “cell-based”, “CHO” for “CHO-K1”; format: functional
[15] = biological target: T7, Orexin/Hypocretin receptor type 1; assay: Fluorescence-based cell-based high throughput dose response assay for antagonists of the orexin 1 receptor (OX1R; HCRTR1). [Related pubchem assays (depositor defined):AID434989, AID435008, AID463079, AID485270, AID492963, AID492964, AID492965, AID493232, AID504717, AID504718]; format: functional
[16] = mammalian cell cytotoxicity, dose response, cytotoxicity control, plate reader, cherry-pick samples (AID 504397); format: functional, cell-based
[17] = biological target: T8, CAAX prenyl protease 2 (Saccharomyces cerevisiae S288c, UniProt Q03530); format: biochemical
T8 sequence (Q03530 whole entry): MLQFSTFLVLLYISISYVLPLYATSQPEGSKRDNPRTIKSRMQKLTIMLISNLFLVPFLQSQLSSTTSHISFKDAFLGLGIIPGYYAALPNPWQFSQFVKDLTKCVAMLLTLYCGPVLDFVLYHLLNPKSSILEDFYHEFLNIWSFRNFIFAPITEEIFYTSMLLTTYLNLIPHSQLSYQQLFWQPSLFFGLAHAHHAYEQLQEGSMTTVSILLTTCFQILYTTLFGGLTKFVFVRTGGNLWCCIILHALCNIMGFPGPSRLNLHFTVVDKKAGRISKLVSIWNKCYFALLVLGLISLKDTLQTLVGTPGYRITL

[18] = biological target: T9, Sphingosine 1-phosphate receptor 4 (Homo sapiens, UniProt O95977); assay: Fluorescence dose response cell-based high throughput screening assay for agonists of the Sphingosine 1-Phosphate Receptor 4 (S1P4). [Related pubchem assays: 1509 (Primary screen.), 1523 (Confirmation screen in triplicates.)]; format: functional
T9 sequence (O95977 whole entry): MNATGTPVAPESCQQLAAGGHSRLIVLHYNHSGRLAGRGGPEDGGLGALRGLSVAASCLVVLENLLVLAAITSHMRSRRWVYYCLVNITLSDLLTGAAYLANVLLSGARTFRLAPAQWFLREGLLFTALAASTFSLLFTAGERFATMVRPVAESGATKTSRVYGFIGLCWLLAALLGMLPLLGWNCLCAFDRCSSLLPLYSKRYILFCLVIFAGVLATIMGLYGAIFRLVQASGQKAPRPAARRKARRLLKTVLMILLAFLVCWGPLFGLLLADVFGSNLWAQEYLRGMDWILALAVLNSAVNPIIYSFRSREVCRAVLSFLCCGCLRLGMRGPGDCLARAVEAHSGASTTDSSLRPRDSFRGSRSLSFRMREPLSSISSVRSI

[19] = biological target: Sphingosine 1-phosphate receptor 1 (Homo sapiens, UniProt P21453); assay: Fluorescence-based counterscreen assay for S1P4 agonists: Cell-based dose response high throughput screening assay to identify agonists of the Sphingosine 1-Phosphate Receptor 1 (S1P1). [Related pubchem assays (depositor defined):AID1509, AID1523, AID1801, AID463107, AID463118, AID463119, AID463122, AID463123, AID463129, AID463225, AID504400, AID504460]; format: functional
Sequence of Sphingosine 1-phosphate receptor 1 (P21453 whole entry): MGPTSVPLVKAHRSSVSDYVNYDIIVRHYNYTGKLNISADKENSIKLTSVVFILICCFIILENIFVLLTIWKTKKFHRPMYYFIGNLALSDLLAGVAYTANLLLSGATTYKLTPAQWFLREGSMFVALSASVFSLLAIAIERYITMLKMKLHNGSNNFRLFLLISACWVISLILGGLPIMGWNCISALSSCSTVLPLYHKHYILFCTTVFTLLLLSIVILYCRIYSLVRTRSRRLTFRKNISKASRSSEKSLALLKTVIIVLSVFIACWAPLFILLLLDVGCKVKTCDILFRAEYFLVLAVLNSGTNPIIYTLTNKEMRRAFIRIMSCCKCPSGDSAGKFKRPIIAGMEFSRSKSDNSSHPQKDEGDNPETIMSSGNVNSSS

[20] = biological target: T10, Tyrosine-protein phosphatase non-receptor type 7 (Homo sapiens, UniProt P35236); format: functional
T10 sequence (P35236 whole entry): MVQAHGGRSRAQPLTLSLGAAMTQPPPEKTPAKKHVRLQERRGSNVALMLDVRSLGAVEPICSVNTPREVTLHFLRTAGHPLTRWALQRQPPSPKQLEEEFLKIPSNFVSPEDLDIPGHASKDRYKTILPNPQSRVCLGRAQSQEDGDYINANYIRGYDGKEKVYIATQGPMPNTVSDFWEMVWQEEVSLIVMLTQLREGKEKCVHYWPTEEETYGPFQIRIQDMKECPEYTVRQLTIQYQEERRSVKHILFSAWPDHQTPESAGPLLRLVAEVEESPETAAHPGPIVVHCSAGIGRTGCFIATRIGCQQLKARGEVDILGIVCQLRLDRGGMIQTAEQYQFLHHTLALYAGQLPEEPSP

[21] = biological target: T11, Tyrosine-protein phosphatase non-receptor type 22 (Homo sapiens, UniProt Q9Y2R2); format: functional
T11 sequence (Q9Y2R2 whole entry): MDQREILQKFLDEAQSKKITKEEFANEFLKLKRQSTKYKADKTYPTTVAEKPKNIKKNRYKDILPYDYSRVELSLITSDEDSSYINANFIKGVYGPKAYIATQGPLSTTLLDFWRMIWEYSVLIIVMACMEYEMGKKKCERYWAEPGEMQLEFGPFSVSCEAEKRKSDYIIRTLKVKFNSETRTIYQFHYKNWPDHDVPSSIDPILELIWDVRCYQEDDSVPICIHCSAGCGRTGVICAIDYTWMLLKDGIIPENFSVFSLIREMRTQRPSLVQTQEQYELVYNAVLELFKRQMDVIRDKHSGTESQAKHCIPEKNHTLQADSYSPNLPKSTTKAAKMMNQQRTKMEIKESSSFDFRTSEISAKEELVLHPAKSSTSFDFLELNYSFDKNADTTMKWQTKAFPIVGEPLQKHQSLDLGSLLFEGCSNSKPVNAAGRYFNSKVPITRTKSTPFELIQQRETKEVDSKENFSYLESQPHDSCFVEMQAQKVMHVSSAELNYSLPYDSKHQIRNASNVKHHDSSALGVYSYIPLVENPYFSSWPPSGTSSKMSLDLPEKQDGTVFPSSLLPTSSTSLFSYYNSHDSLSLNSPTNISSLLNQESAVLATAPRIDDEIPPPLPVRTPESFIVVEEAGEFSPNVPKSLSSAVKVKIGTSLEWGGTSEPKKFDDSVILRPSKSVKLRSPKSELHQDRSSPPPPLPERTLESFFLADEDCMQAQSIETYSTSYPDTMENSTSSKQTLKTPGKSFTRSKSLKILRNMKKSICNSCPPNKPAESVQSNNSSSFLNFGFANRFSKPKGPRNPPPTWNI

[22] = biological target: T11, Tyrosine-protein phosphatase non-receptor type 22; format: functional; remark: listed apart in the source
[23] = biological target: T12, Dual specificity protein phosphatase 3 (Homo sapiens, UniProt P51452); assay: VHR1 phosphatase inhibitors, primary screen, biochemical, absorbance, uHTS (AID 1654)
T12 sequence (P51452 whole entry): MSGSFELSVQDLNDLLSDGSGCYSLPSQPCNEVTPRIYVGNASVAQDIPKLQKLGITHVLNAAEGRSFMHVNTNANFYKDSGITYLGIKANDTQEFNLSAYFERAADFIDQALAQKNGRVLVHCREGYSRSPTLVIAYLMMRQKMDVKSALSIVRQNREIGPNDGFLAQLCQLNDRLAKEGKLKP

[24] = biological target: T12, Dual specificity protein phosphatase 3; assay: VHR1 phosphatase inhibitors, biochemical (AID 1878)
[25] = biological target: T13, Carboxy-terminal domain RNA polymerase II polypeptide A small phosphatase 1 (Homo sapiens, UniProt Q9GZU7); assay: inhibitors of CTDSP1, concentration-response testing, biochemical assay, absorbance-based, actives from ultra-high-throughput screening (AID 540297); format: functional
T13 sequence (Q9GZU7 whole entry): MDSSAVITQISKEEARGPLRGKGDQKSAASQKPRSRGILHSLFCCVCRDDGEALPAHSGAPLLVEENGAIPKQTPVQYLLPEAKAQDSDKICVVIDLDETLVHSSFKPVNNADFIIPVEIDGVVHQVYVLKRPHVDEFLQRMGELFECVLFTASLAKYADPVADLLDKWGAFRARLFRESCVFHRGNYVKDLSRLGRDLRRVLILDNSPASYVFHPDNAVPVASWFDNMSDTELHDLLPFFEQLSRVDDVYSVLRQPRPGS

[26] = biological target: T14, Dual specificity protein phosphatase 6 (Rattus norvegicus, UniProt Q64346); assay: MKP-3 phosphatase inhibitors, primary screen, biochemical, rat enzyme, in vitro (AID 425)
T14 sequence (Q64346 whole entry): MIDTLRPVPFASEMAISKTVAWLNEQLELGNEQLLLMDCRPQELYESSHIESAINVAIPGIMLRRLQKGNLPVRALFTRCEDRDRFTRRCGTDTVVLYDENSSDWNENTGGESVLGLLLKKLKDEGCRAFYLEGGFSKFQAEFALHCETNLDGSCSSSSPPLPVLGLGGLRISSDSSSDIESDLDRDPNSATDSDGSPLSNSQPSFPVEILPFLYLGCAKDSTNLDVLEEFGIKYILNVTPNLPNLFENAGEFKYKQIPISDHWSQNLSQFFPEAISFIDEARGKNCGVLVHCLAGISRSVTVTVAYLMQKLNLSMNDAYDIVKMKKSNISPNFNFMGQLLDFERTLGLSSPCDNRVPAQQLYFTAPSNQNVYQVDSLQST

T1 sequence (Q9HC97 whole entry): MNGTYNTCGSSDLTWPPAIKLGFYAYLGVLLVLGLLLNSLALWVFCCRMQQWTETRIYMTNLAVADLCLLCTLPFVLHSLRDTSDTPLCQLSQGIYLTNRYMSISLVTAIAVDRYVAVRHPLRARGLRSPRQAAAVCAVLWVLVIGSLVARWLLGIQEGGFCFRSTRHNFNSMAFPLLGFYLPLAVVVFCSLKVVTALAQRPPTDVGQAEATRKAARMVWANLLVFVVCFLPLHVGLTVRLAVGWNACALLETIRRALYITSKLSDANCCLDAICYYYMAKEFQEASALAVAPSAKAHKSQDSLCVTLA

Cc1cc(C)c2nc(-c3cccnc3)cc(C(=O)Nc3ccc(S(=O)(=O)Nc4onc(C)c4C)cc3)c2c1
IC50 [1]: > 32 µM (inactive)
EC50 [2]: > 32 µM (inactive)
EC50 [3]: > 32 µM (inactive)
IC50 [4]: > 50 µM (not active)
IC50 [5]: 1.55 µM (active)
IC50 [6]: 3.76 µM (active)
IC50 [7]: > 32 µM (inactive)
IC50 [8]: > 32 µM (inactive)
IC50 [9]: 12.5 µM (active)
IC50 [10]: 0.457 µM (active)
EC50 [11]: > 32 µM (inactive)

CC(=O)NC(N=C(S)Nc1ccc(N=Nc2ccccc2)cc1)C(Cl)(Cl)Cl (stereo unspecified)
IC50 [12]: > 66.2 µM (inactive)
IC50 [13]: 42.3 µM (inactive)
IC50 [14]: > 5.53 µM (active)
IC50 [15]: 6.68 µM (active)

Nc1nnnn1/N=C/c1cccc(OCc2ccccc2Cl)c1
AC50 [16]: > 350 µM (inactive)
AC50 [17]: 2.78 µM (active)

Cc1ccc2nc3c(cc(C#N)c(=O)n3-c3nccs3)c(=O)n2c1
EC50 [18]: 3.72 µM (active)
EC50 [19]: 10.6 µM (inactive)

CC1=NN(C(=O)c2ccc(Cn3ccc([N+](=O)[O-])n3)cc2)C(O)(C(F)(F)F)C1 (stereo unspecified)
IC50 [20]: > 79.4 µM (inactive)
IC50 [21]: > 79.4 µM (inactive)
IC50 [22]: > 79.4 µM (inactive)

CN1C(=O)/C(=C2\SC(=S)N(CCCCCC(=O)O)C2=O)c2ccccc21
IC50 [23]: 5.97 µM (active)
IC50 [24]: 2.4 µM (active)
IC50 [25]: 0.836 µM (active)
IC50 [26]: > 158 µM (not active)
